# Source: ChEMBL document CHEMBL4627246, “Pyroglutamide-Based P2X7 Receptor Antagonists Targeting Inflammatory Bowel Disease” (J Med Chem, 2020)
# System: MDA-MB-231
# Assay: Cytotoxicity against human MDA-MB-231 cells assessed as effect on cell growth at 10 uM incubated for 48 hrs by sulforhodamine B assay
# Format: cell-based
# Conditions: mda-mb-231, 48 h
row,SMILES,Activity
1,O=C(NCc1ccc(Cl)cc1Cl)[C@@H]1CCC(=O)N1C(c1ccc(Cl)cc1)c1ccc(Cl)cc1,Non-Toxic
2,O=C(NCc1ccc(Cl)cc1Cl)[C@@H]1CCC(=O)N1c1cncs1,Non-Toxic
3,COc1ccc(NC(=O)[C@@H]2C/C(=C\N(C)C)C(=O)N2)cc1,Non-Toxic
4,C[n+]1ccccc1C(=O)NCc1ccc(Cl)cc1Cl.[I-],Non-Toxic

# System: SK-MEL-5
# Assay: Cytotoxicity against human SK-MEL-5 cells assessed as effect on cell growth at 10 uM incubated for 48 hrs by sulforhodamine B assay
# Format: cell-based
# Conditions: sk-mel-5, 48 h
row,SMILES,Activity
1,O=C(NCc1ccc(Cl)cc1Cl)[C@@H]1CCC(=O)N1C(c1ccc(Cl)cc1)c1ccc(Cl)cc1,Non-Toxic
2,O=C(NCc1ccc(Cl)cc1Cl)[C@@H]1CCC(=O)N1c1cncs1,Non-Toxic
3,COc1ccc(NC(=O)[C@@H]2C/C(=C\N(C)C)C(=O)N2)cc1,Non-Toxic
4,C[n+]1ccccc1C(=O)NCc1ccc(Cl)cc1Cl.[I-],Non-Toxic

# System: HOP-62
# Assay: Cytotoxicity against human HOP62 cells assessed as effect on cell growth at 10 uM incubated for 48 hrs by sulforhodamine B assay
# Format: cell-based
# Conditions: hop-62, 48 h
row,SMILES,Activity
1,O=C(NCc1ccc(Cl)cc1Cl)[C@@H]1CCC(=O)N1C(c1ccc(Cl)cc1)c1ccc(Cl)cc1,Non-Toxic
2,O=C(NCc1ccc(Cl)cc1Cl)[C@@H]1CCC(=O)N1c1cncs1,Non-Toxic
3,COc1ccc(NC(=O)[C@@H]2C/C(=C\N(C)C)C(=O)N2)cc1,Non-Toxic
4,C[n+]1ccccc1C(=O)NCc1ccc(Cl)cc1Cl.[I-],Non-Toxic

# System: CCRF-CEM
# Assay: Cytotoxicity against human CCRF-CEM cells assessed as effect on cell growth at 10 uM incubated for 48 hrs by sulforhodamine B assay
# Format: cell-based
# Conditions: not given
row,SMILES,Activity
1,O=C(NCc1ccc(Cl)cc1Cl)[C@@H]1CCC(=O)N1C(c1ccc(Cl)cc1)c1ccc(Cl)cc1,Non-Toxic
2,O=C(NCc1ccc(Cl)cc1Cl)[C@@H]1CCC(=O)N1c1cncs1,Non-Toxic
3,COc1ccc(NC(=O)[C@@H]2C/C(=C\N(C)C)C(=O)N2)cc1,Non-Toxic
4,C[n+]1ccccc1C(=O)NCc1ccc(Cl)cc1Cl.[I-],Non-Toxic

# System: OVCAR-4
# Assay: Cytotoxicity against human OVCAR4 cells assessed as effect on cell growth at 10 uM incubated for 48 hrs by sulforhodamine B assay
# Format: cell-based
# Conditions: ovcar-4, 48 h
row,SMILES,Activity
1,O=C(NCc1ccc(Cl)cc1Cl)[C@@H]1CCC(=O)N1C(c1ccc(Cl)cc1)c1ccc(Cl)cc1,Non-Toxic
2,O=C(NCc1ccc(Cl)cc1Cl)[C@@H]1CCC(=O)N1c1cncs1,Non-Toxic
3,COc1ccc(NC(=O)[C@@H]2C/C(=C\N(C)C)C(=O)N2)cc1,Non-Toxic
4,C[n+]1ccccc1C(=O)NCc1ccc(Cl)cc1Cl.[I-],Non-Toxic

# System: RXF 393
# Assay: Cytotoxicity against human RXF393 cells assessed as effect on cell growth at 10 uM incubated for 48 hrs by sulforhodamine B assay
# Format: cell-based
# Conditions: rxf 393, 48 h
row,SMILES,Activity
1,O=C(NCc1ccc(Cl)cc1Cl)[C@@H]1CCC(=O)N1C(c1ccc(Cl)cc1)c1ccc(Cl)cc1,Non-Toxic
2,O=C(NCc1ccc(Cl)cc1Cl)[C@@H]1CCC(=O)N1c1cncs1,Non-Toxic
3,COc1ccc(NC(=O)[C@@H]2C/C(=C\N(C)C)C(=O)N2)cc1,Non-Toxic
4,C[n+]1ccccc1C(=O)NCc1ccc(Cl)cc1Cl.[I-],Non-Toxic

# System: K562
# Assay: Cytotoxicity against human K562 cells assessed as effect on cell growth at 10 uM incubated for 48 hrs by sulforhodamine B assay
# Format: cell-based
# Conditions: k562, 48 h
row,SMILES,Activity
1,O=C(NCc1ccc(Cl)cc1Cl)[C@@H]1CCC(=O)N1C(c1ccc(Cl)cc1)c1ccc(Cl)cc1,Non-Toxic
2,O=C(NCc1ccc(Cl)cc1Cl)[C@@H]1CCC(=O)N1c1cncs1,Non-Toxic
3,COc1ccc(NC(=O)[C@@H]2C/C(=C\N(C)C)C(=O)N2)cc1,Non-Toxic
4,C[n+]1ccccc1C(=O)NCc1ccc(Cl)cc1Cl.[I-],Non-Toxic

# System: CAKI-1
# Assay: Growth inhibition of human Caki1 cells assessed as growth percentage at 10 uM incubated for 48 hrs by sulforhodamine B assay
# Format: cell-based
# Conditions: caki-1, 48 h
row,SMILES,Activity
1,O=C(NCc1ccc(Cl)cc1Cl)[C@@H]1CCC(=O)N1C(c1ccc(Cl)cc1)c1ccc(Cl)cc1,Non-Toxic
2,O=C(NCc1ccc(Cl)cc1Cl)[C@@H]1CCC(=O)N1c1cncs1,Non-Toxic
3,COc1ccc(NC(=O)[C@@H]2C/C(=C\N(C)C)C(=O)N2)cc1,Non-Toxic
4,C[n+]1ccccc1C(=O)NCc1ccc(Cl)cc1Cl.[I-],Non-Toxic

# System: BT-549
# Assay: Cytotoxicity against human BT549 cells assessed as effect on cell growth at 10 uM incubated for 48 hrs by sulforhodamine B assay
# Format: cell-based
# Conditions: bt-549, 48 h
row,SMILES,Activity
1,O=C(NCc1ccc(Cl)cc1Cl)[C@@H]1CCC(=O)N1C(c1ccc(Cl)cc1)c1ccc(Cl)cc1,Non-Toxic
2,O=C(NCc1ccc(Cl)cc1Cl)[C@@H]1CCC(=O)N1c1cncs1,Non-Toxic
3,COc1ccc(NC(=O)[C@@H]2C/C(=C\N(C)C)C(=O)N2)cc1,Non-Toxic
4,C[n+]1ccccc1C(=O)NCc1ccc(Cl)cc1Cl.[I-],Non-Toxic

# System: OVCAR-3
# Assay: Cytotoxicity against human OVCAR3 cells assessed as effect on cell growth at 10 uM incubated for 48 hrs by sulforhodamine B assay
# Format: cell-based
# Conditions: ovcar-3, 48 h
row,SMILES,Activity
1,O=C(NCc1ccc(Cl)cc1Cl)[C@@H]1CCC(=O)N1C(c1ccc(Cl)cc1)c1ccc(Cl)cc1,Non-Toxic
2,O=C(NCc1ccc(Cl)cc1Cl)[C@@H]1CCC(=O)N1c1cncs1,Non-Toxic
3,COc1ccc(NC(=O)[C@@H]2C/C(=C\N(C)C)C(=O)N2)cc1,Non-Toxic
4,C[n+]1ccccc1C(=O)NCc1ccc(Cl)cc1Cl.[I-],Non-Toxic

# System: MDA-MB-435
# Assay: Cytotoxicity against human MDA-MB-435 cells assessed as effect on cell growth at 10 uM incubated for 48 hrs by sulforhodamine B assay
# Format: cell-based
# Conditions: mda-mb-435, 48 h
row,SMILES,Activity
1,O=C(NCc1ccc(Cl)cc1Cl)[C@@H]1CCC(=O)N1C(c1ccc(Cl)cc1)c1ccc(Cl)cc1,Non-Toxic
2,O=C(NCc1ccc(Cl)cc1Cl)[C@@H]1CCC(=O)N1c1cncs1,Non-Toxic
3,COc1ccc(NC(=O)[C@@H]2C/C(=C\N(C)C)C(=O)N2)cc1,Non-Toxic
4,C[n+]1ccccc1C(=O)NCc1ccc(Cl)cc1Cl.[I-],Non-Toxic

# System: MCF7
# Assay: Cytotoxicity against human MCF7 cells assessed as effect on cell growth at 10 uM incubated for 48 hrs by sulforhodamine B assay
# Format: cell-based
# Conditions: mcf7, 48 h
row,SMILES,Activity
1,O=C(NCc1ccc(Cl)cc1Cl)[C@@H]1CCC(=O)N1C(c1ccc(Cl)cc1)c1ccc(Cl)cc1,Non-Toxic
2,O=C(NCc1ccc(Cl)cc1Cl)[C@@H]1CCC(=O)N1c1cncs1,Non-Toxic
3,COc1ccc(NC(=O)[C@@H]2C/C(=C\N(C)C)C(=O)N2)cc1,Non-Toxic
4,C[n+]1ccccc1C(=O)NCc1ccc(Cl)cc1Cl.[I-],Non-Toxic

# System: SK-MEL-2
# Assay: Cytotoxicity against human SK-MEL-2 cells assessed as effect on cell growth at 10 uM incubated for 48 hrs by sulforhodamine B assay
# Format: cell-based
# Conditions: sk-mel-2, 48 h
row,SMILES,Activity
1,O=C(NCc1ccc(Cl)cc1Cl)[C@@H]1CCC(=O)N1C(c1ccc(Cl)cc1)c1ccc(Cl)cc1,Non-Toxic
2,O=C(NCc1ccc(Cl)cc1Cl)[C@@H]1CCC(=O)N1c1cncs1,Non-Toxic
3,COc1ccc(NC(=O)[C@@H]2C/C(=C\N(C)C)C(=O)N2)cc1,Non-Toxic
4,C[n+]1ccccc1C(=O)NCc1ccc(Cl)cc1Cl.[I-],Non-Toxic

# System: SF-268
# Assay: Cytotoxicity against human SF268 cells assessed as effect on cell growth at 10 uM incubated for 48 hrs by sulforhodamine B assay
# Format: cell-based
# Conditions: sf-268, 48 h
row,SMILES,Activity
1,O=C(NCc1ccc(Cl)cc1Cl)[C@@H]1CCC(=O)N1C(c1ccc(Cl)cc1)c1ccc(Cl)cc1,Non-Toxic
2,O=C(NCc1ccc(Cl)cc1Cl)[C@@H]1CCC(=O)N1c1cncs1,Non-Toxic
3,COc1ccc(NC(=O)[C@@H]2C/C(=C\N(C)C)C(=O)N2)cc1,Non-Toxic
4,C[n+]1ccccc1C(=O)NCc1ccc(Cl)cc1Cl.[I-],Non-Toxic

# System: Hs-578T
# Assay: Cytotoxicity against human Hs 578T cells assessed as effect on cell growth at 10 uM incubated for 48 hrs by sulforhodamine B assay
# Format: cell-based
# Conditions: not given
row,SMILES,Activity
1,O=C(NCc1ccc(Cl)cc1Cl)[C@@H]1CCC(=O)N1C(c1ccc(Cl)cc1)c1ccc(Cl)cc1,Non-Toxic
2,O=C(NCc1ccc(Cl)cc1Cl)[C@@H]1CCC(=O)N1c1cncs1,Non-Toxic
3,COc1ccc(NC(=O)[C@@H]2C/C(=C\N(C)C)C(=O)N2)cc1,Non-Toxic
4,C[n+]1ccccc1C(=O)NCc1ccc(Cl)cc1Cl.[I-],Non-Toxic

# System: LOX IMVI
# Assay: Cytotoxicity against human LOXIMVI cells assessed as effect on cell growth at 10 uM incubated for 48 hrs by sulforhodamine B assay
# Format: cell-based
# Conditions: not given
row,SMILES,Activity
1,O=C(NCc1ccc(Cl)cc1Cl)[C@@H]1CCC(=O)N1C(c1ccc(Cl)cc1)c1ccc(Cl)cc1,Non-Toxic
2,O=C(NCc1ccc(Cl)cc1Cl)[C@@H]1CCC(=O)N1c1cncs1,Non-Toxic
3,COc1ccc(NC(=O)[C@@H]2C/C(=C\N(C)C)C(=O)N2)cc1,Non-Toxic
4,C[n+]1ccccc1C(=O)NCc1ccc(Cl)cc1Cl.[I-],Non-Toxic

# System: NCI-H226
# Assay: Cytotoxicity against human NCI-H226 cells assessed as effect on cell growth at 10 uM incubated for 48 hrs by sulforhodamine B assay
# Format: cell-based
# Conditions: nci-h226, 48 h
row,SMILES,Activity
1,O=C(NCc1ccc(Cl)cc1Cl)[C@@H]1CCC(=O)N1C(c1ccc(Cl)cc1)c1ccc(Cl)cc1,Non-Toxic
2,O=C(NCc1ccc(Cl)cc1Cl)[C@@H]1CCC(=O)N1c1cncs1,Non-Toxic
3,COc1ccc(NC(=O)[C@@H]2C/C(=C\N(C)C)C(=O)N2)cc1,Non-Toxic
4,C[n+]1ccccc1C(=O)NCc1ccc(Cl)cc1Cl.[I-],Non-Toxic

# System: SK-MEL-28
# Assay: Cytotoxicity against human SK-MEL-28 cells assessed as effect on cell growth at 10 uM incubated for 48 hrs by sulforhodamine B assay
# Format: cell-based
# Conditions: sk-mel-28, 48 h
row,SMILES,Activity
1,O=C(NCc1ccc(Cl)cc1Cl)[C@@H]1CCC(=O)N1C(c1ccc(Cl)cc1)c1ccc(Cl)cc1,Non-Toxic
2,O=C(NCc1ccc(Cl)cc1Cl)[C@@H]1CCC(=O)N1c1cncs1,Non-Toxic
3,COc1ccc(NC(=O)[C@@H]2C/C(=C\N(C)C)C(=O)N2)cc1,Non-Toxic
4,C[n+]1ccccc1C(=O)NCc1ccc(Cl)cc1Cl.[I-],Non-Toxic

# System: SN12C
# Assay: Cytotoxicity against human SN12C cells assessed as effect on cell growth at 10 uM incubated for 48 hrs by sulforhodamine B assay
# Format: cell-based
# Conditions: not given
row,SMILES,Activity
1,O=C(NCc1ccc(Cl)cc1Cl)[C@@H]1CCC(=O)N1C(c1ccc(Cl)cc1)c1ccc(Cl)cc1,Non-Toxic
2,O=C(NCc1ccc(Cl)cc1Cl)[C@@H]1CCC(=O)N1c1cncs1,Non-Toxic
3,COc1ccc(NC(=O)[C@@H]2C/C(=C\N(C)C)C(=O)N2)cc1,Non-Toxic
4,C[n+]1ccccc1C(=O)NCc1ccc(Cl)cc1Cl.[I-],Non-Toxic

# System: UACC-257
# Assay: Cytotoxicity against human UACC257 cells assessed as effect on cell growth at 10 uM incubated for 48 hrs by sulforhodamine B assay
# Format: cell-based
# Conditions: uacc-257, 48 h
row,SMILES,Activity
1,O=C(NCc1ccc(Cl)cc1Cl)[C@@H]1CCC(=O)N1C(c1ccc(Cl)cc1)c1ccc(Cl)cc1,Non-Toxic
2,O=C(NCc1ccc(Cl)cc1Cl)[C@@H]1CCC(=O)N1c1cncs1,Non-Toxic
3,COc1ccc(NC(=O)[C@@H]2C/C(=C\N(C)C)C(=O)N2)cc1,Non-Toxic
4,C[n+]1ccccc1C(=O)NCc1ccc(Cl)cc1Cl.[I-],Non-Toxic
